Experimental data published in the NIST ThermoML archive (doi:10.1021/acs.jced.9b00406).
Numbers after ± are expanded uncertainties.

Experiments:
[1] = Crystal; DSC
[2] = Molar enthalpy of transition or fusion; details: Crystal; DSC

With `Cc1cnc(C(=O)O)cn1` [2-methylpyrazine-5-carboxylic acid] as the compound, how does the Triple point temperature [1] read?
The Triple point temperature was 440.35 ± 1.2 K.

And the “Molar enthalpy of transition or fusion” value [2]?
The value was 6.84 ± 0.237 kcal/mol.
